Reference: patent US20070078125A1, “Arylamine mch r1 antagonists” (GLAXO GROUP LIMITED, priority 2003, published 2007)
pIC50: −log10 of the molar value.

What was measured:
hERG potassium channel = biological target: T1, hERG potassium channel (Homo sapiens, UniProt Q12809); experiment: hERG whole cell patch clamp, tail current inhibition in HEK-293 cells; assay type: cell-based; details: tail current at −40 mV, room temperature; for inhibition at 3 µM: human, pH 7.4, 3 μM, read-out: hERG Inhibition, % inhib. @ 3 μM
T1 construct: expressed in transfected cells; host or cells: HEK-293 cells, BacMam viral expression system
Procedure: The comparison was carried out as follows. The hERG potassium channels were transiently expressed in HEK-293 cells using the Bacmam viral expression system (Kost et al, 2000: Pfohl et al, 2001). The HEK-293 cells were maintained in cell media comprised of D-MEM/F12, 10% fetal bovine serum, penicillin G sodium 100 units/mL, and streptomycin sulfate 100 μg/mL. Cells were grown to confluency in flasks and were rinsed once with PBS prior to passage. The flasks were incubated with VERSENE (EDTA) 1:5000 for 5 minutes at 37° C. to detach the cells from the flasks. Cells used in electrophysiology experiments were plated on glass coverslips and transfected 24 to 72 hours prior to use.
hERG channels were studied using the whole cell mode of the patch clamp technique (Hamill et al., 1981). The pipette solution contained 145 mM K+Aspartate, 11 mM EGTA, 5 mM NaCl, 5 mM MgATP, 5 mM HEPES, pH 7.4, and the bath solution contained 145 mM NaCl, 4 mM KCl, 2 mM CaCl2, 1 mM MgCl2, 10 mM HEPES, 10 mM d-glucose pH 7.4. To measure drug effects, the cells were held at −80 mV, then stepped to +20 mV for 400 ms followed by a second pulse to −40 mV so that the outward tail current characteristic of hERG could be measured. […] This pulse protocol was repeated at ten-second intervals during the superfusion of the test article diluted in the bath solution. The inhibition of hERG was determined by measuring the peak amplitude of the tail currents at −40 mV before and after compound application. The half-maximal inhibitory concentration (IC50) was determined from a curve fit of Hill equation to the data points. […] All experiments were conducted at room temperature (approximately 25° C.).

MCH R1 = biological target: T2, MCH R1 (Homo sapiens, UniProt Q99705); experiment: functional antagonist assay of MCH R1 (elkgal4-luc+ reporter gene, CHO cells, inhibition of MCH EC80 response); assay type: cell-based; details: MCH1R-elkgal4-luc+ CHO cells, read-out: MCH R1 pIC50 (converted)
T2 construct: expressed in transfected cells; host or cells: CHO cells stably expressing elkgal4-luc+ reporter gene (CHO-K1, ATCC)
Text: The activity of the compounds used in this invention may be assessed in a functional assay of MCH R1 as follows:
Black, 96-well, tissue culture-treated plates (#3904) were obtained from Corning Costar, (Cambridge, Mass.), LucPlus™ Luciferase Reporter Gene Assay Kit (# 6016969) was from Packard (Meriden, Conn.), plate seals (#097-05-00006) were from Beckman/Sagian (Fullerton, Calif.). DMEM/F12 medium (#11039-021), fetal bovine serum (# 16140-071), L-glutamine (#25030-081), 0.05% trypsin (# 25300-054), G418 (#10131-035) and dPBS (#4190-144) were obtained from Gibco BRL (Gaithersburg, Md.). […]
CHO cells, stably expressing an elkgal4-luc^+ reporter gene (host) were transfected by electroporation with the human melanin-concentrating hormone one receptor. […] Plates were sealed and subjected to dark adaptation at room temperature for 10 minutes before luciferase activity was quantitated on a TopCount™ microplate scintillation counter (Packard) using 3 seconds/well count time. The ability of the antagonist to inhibit the MCH EC80 response was quantified by non-linear regression analysis using a curve-fitting program based in Microsoft ExCel. Specificity of the MCH R1 response was determined using the same protocol by measuring the ability of said antagonists to inhibit an EC80 thrombin response (endogenous) in the host cells.

T1 sequence (Q12809 whole entry): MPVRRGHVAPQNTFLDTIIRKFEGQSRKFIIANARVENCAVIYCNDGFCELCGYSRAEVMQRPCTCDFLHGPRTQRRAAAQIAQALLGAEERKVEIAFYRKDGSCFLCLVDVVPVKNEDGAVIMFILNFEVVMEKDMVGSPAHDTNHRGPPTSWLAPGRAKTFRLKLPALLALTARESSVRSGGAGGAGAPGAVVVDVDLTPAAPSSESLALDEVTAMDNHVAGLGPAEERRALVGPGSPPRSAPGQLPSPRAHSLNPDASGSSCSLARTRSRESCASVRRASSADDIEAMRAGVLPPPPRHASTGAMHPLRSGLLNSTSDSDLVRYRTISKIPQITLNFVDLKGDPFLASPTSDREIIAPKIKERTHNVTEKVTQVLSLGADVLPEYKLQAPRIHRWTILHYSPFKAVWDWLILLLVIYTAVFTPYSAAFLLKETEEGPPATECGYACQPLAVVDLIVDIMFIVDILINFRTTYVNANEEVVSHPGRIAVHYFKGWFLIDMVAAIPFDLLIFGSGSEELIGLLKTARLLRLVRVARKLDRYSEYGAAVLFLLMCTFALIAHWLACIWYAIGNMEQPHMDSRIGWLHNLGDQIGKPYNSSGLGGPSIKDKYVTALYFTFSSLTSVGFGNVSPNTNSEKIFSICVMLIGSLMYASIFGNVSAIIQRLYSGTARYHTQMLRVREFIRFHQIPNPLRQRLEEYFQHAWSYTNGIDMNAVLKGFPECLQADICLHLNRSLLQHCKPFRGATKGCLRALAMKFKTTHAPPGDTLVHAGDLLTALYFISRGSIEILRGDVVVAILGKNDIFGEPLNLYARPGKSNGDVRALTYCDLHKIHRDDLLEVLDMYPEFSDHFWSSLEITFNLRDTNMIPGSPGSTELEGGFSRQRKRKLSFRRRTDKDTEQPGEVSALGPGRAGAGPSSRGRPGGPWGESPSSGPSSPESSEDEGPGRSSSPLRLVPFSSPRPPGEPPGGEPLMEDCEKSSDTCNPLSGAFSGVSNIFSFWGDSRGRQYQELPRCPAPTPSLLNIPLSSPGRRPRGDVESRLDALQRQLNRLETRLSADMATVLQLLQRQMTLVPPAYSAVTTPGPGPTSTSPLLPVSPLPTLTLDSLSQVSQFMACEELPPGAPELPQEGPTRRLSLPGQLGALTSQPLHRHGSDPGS
T2 sequence (Q99705 whole entry, the tested form may be a part): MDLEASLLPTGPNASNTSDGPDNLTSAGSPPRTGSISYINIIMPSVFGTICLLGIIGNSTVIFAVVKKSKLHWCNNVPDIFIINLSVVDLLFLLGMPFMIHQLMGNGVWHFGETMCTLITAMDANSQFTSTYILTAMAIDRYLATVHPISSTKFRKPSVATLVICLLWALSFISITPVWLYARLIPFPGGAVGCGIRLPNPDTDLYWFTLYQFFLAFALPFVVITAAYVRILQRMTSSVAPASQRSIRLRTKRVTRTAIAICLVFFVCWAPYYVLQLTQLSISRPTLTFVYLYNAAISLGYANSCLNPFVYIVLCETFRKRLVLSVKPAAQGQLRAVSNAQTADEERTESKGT

| SMILES | inhibition at 3 µM (hERG potassium channel) [%] | IC50 (MCH R1) [nM] | pIC50 (hERG potassium channel) |
| --- | --- | --- | --- |
| COc1cc(-n2cnc3cc(-c4ccc(Cl)cc4)sc3c2=O)ccc1OCCCN1CC[C@@H](O)C1 [Comparison Example 3] | 84 | – | – |
| COc1cc(-n2cnc3cc(-c4ccc(Cl)cc4)sc3c2=O)ccc1N1CC[C@@H](O)C1 [Example 1, 6-(4-chlorophenyl)-3-{4-[(3R)-3-hydroxypyrrolidin-1-yl]-3-methoxyphenyl}thieno[3,2-d]pyrimidin-4(3H)-one] | – | 2.51 | – |
| COc1cc(-n2cnc3cc(-c4ccc(Cl)cc4)sc3c2=O)ccc1N1CC[C@H](O)C1 [Example 4, 6-(4-chlorophenyl)-3-{4-[(3S)-3-hydroxypyrrolidin-1-yl]-3-methoxyphenyl}thieno[3,2-d]pyrimidin-4(3H)-one] | – | 2 | – |
| COc1cc(-n2cnc3cc(-c4ccc(Cl)cc4)sc3c2=O)ccc1OCCN1CC[C@@H](O)C1 [Comparison Example 2] | 90 | – | – |
| COc1cc(-n2cnc3cc(-c4ccc(Cl)cc4)sc3c2=O)ccc1OCCN1CC[C@H](O)C1 [Comparison Example 1] | 62 | – | 5.70 |
